Experimental data taken from patent US8426596B2, “Process of producing bleach boosters” (BASF Aktiengesellschaft, priority 2005, dated 2013).
Where a name gives a salt, the structure may show the parent alone.

Experiments:
Format in all cases: biochemical
Termamyl (alpha amylase) = molecular target: T1, Termamyl (alpha amylase) (Bacillus licheniformis, UniProt P06278); test: Organic Catalyst/Enzyme Compatibility Test (alpha amylase activity assay), Termamyl; conditions: (Ac/Ab)x100; peracetic acid 5.0 ppm; organic catalyst 0.5 ppm; 40° C.; sample at 7 min 45 s
T1 construct: purchased Novozymes, Denmark
Description: (§1) Organic Catalyst/Enzyme Compatibility Test
(§2) The test described below uses an alpha amylase activity assay to measure the impact of organic catalysts on the enzyme.
(§3) Equipment. UV/Vis spectrophotometer capable of measuring @ 415 nm, heated magnetic stirrer capable of 40° C., 5 ml Luer lock syringe and filters (Acrodisc 0.45 ? μm), pH meter, and balance (4-place analytical).
(§4) Reagents. Merck Amylase Kit (Merck Eurolab, Cat. No. 1.19718.0001); Trizma Base (Sigma Cat # T-1503, or equivalent); Calcium Chloride Dihydrate (Sigma Cat # C-5080, or equivalent); Sodium Thiosulfate Pentahydrate (Sigma Cat # S-6672 or equivalent); Hydrochloric Acid (VWR Cat # JT9535-0, or equivalent); Hardness solution (CTC Group, 3.00 gr/cc or equivalent); Sodium Percarbonate; Peracetic Acid (Aldrich, Cat. #26933-6 or equivalent); Amylase enzymes: Termamyl, Natalase, and Duramyl (Novozymes, Denmark); Granular detergent matrix containing no enzyme, organic catalyst or bleaching agents.
(§5) 1.) Solution Preparation: Prepare the Following:
(§6) • a.) TRIS Assay Buffer. Prepare 1 liter of 0.1M TRIS buffer, 0.5% sodium thiosulphate (W/V), 0.11% calcium chloride (w/v) at pH 8.3. • b.) Blank Detergent Solution. Prepare one liter of 0.5% enzyme and bleach free granular detergent product in deionized water (W/V) that is 250 ppm H2O2 (0.77 gm percarbonate) and 10 gpg hardness (880 UI of hardness). • c.) Termamyl, Duramyl and Natalase Stock. Make 100 ml solutions each of a 0.1633 mg active Termamyl per ml TRIS Buffer, a 0.1159 mg active Natalase per ml TRIS Buffer, and a 0.1596 mg active Duramyl per ml TRIS Buffer. • d.) Organic catalyst stocks. Make a 500 ppm in methanol solution of μm. • e.) Peracetic acid stock. Make a 3955 ppm peracetic acid solution in deionized water. • f.) Amylase reagent. Follow Merck kit instructions for preparing flacons (containers) 1 and 2 using flacon 3 and subsequent mixing of flacons 1 and 2 to produce the final reagent used in the amylase activity analysis. 2.) Sample Analysis • a.) Analysis of sample with enzyme only: Add 100 ml of blank detergent solution to a 150 ml beaker. Place beaker on heated stir plate and bring temperature to 40° C. with stirring. Add Y μl of enzyme stock to the beaker where Y=612 μL for Duramyl, 306 μl for Termamyl, or 918 μl for Natalase. Spike only enzyme of interest. Stir sample for 1 minute. Start timer. At 7 minutes 45 seconds, pull a sample and filter it using a 0.45 μm syringe filter (5 ml syringe). Mix 6 μl of filtered sample with 250 μL of amylase reagent in a cuvette and place the cuvette in a UV/VIS spectrophotometer and monitor change in absorbance at 415 nm. Determine length of time (tE) to the nearest second required to obtain an absorbance reading of 1.0 for each enzyme. Use each enzyme's tE in Steps 2.)b.) and 2.)c.) below. • b.) Analysis of sample with enzyme and peracetic acid only. Follow Step 2.)a.) except after enzyme addition, allow solution to stir for 1 minute then add 127 μl of peracetic acid stock and start timer. Pull sample at 7 minutes 45 seconds as in Step 2.)a.). Once sample and reagent are mixed, record the absorbance at tE for the respective enzyme. Designate such absorbance Ab. • c.) Analysis of sample with enzyme, peracetic acid, and organic catalyst. […] Once sample and reagent are mixed, record the absorbance at tE for the respective enzyme. Designate such absorbance A, 3.) Calculate Enzyme Compatibility Value (ECV) • a.) Calculate the ECV for each specific enzyme: termamyl (ECVter), duramyl (ECVdur) and natalase (ECVnat). […]

Natalase (alpha amylase) = test: Organic Catalyst/Enzyme Compatibility Test (alpha amylase activity assay), Natalase; conditions: (Ac/Ab)x100; peracetic acid 5.0 ppm; organic catalyst 0.5 ppm; 40° C.; sample at 7 min 45 s
Description: as §1, §2, §3, §4, §5, §6

Duramyl (alpha amylase) = test: Organic Catalyst/Enzyme Compatibility Test (alpha amylase activity assay), Duramyl; conditions: (Ac/Ab)x100; peracetic acid 5.0 ppm; organic catalyst 0.5 ppm; 40° C.; sample at 7 min 45 s
Description: as §1, §2, §3, §4, §5, §6

[1] = system: Termamyl, Duramyl and Natalase (alpha amylases); test: Organic Catalyst/Enzyme Compatibility Test, average over the three amylases; conditions: ECV=(ECVter+ECVdur+ECVnat)/3; peracetic acid 5.0 ppm; organic catalyst 0.5 ppm
Description: as §1, §2, §3, §4, §5, §6

T1 sequence (P06278 30-512): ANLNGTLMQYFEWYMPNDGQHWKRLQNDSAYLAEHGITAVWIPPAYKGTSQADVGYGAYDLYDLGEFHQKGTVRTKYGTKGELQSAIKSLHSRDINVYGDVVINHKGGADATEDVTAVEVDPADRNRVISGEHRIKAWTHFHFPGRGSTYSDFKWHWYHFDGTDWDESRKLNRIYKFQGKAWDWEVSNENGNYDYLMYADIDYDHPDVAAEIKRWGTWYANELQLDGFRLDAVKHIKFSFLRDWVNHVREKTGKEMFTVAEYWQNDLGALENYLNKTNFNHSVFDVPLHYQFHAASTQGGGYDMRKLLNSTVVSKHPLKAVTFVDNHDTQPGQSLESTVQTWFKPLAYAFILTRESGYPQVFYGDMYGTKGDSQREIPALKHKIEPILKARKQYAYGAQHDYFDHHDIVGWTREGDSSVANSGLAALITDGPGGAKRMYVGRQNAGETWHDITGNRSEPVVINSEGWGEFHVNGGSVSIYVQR

Row | SMILES | Enzyme Compatibility Value ECVter (Termamyl (alpha amylase)) | Enzyme Compatibility Value ECVnat (Natalase (alpha amylase)) | Enzyme Compatibility Value ECVdur (Duramyl (alpha amylase)) | Enzyme Compatibility Value ECV [1]
1 | CC(C)(C)OCC(C[N+]1=Cc2ccccc2CC1)OS(=O)(=O)[O-] (centres unmarked) [Entry 1, Sulfuric acid mono-[2-(3,4-dihydro-isoquinolin-2-yl)-1-((1,1-di-methylethoxy)methyl)ethyl] ester, internal salt, reference compound] | 51 | 58 | 86 | 65
2 | CCCCC(CC)COCC(C[N+]1=Cc2ccccc2CC1)OS(=O)(=O)[O-] (centres unmarked) [Entry 2, Sulfuric acid mono-[2-(3,4-dihydro-isoquinolin-2-yl)-1-(2-ethyl-hexyloxymethyl)-ethyl] ester, internal salt, reference compound] | 54 | 57 | 90 | 67
3 | O=S(=O)([O-])OCC[N+]1=Cc2ccccc2C(Cc2ccccc2)(Cc2ccccc2)C1 [Entry 3, 3,4-dihydro-4,4-di(phenylmethyl)-2-[2′-(sulfooxy)ethyl]-isoquinolinium, internal salt] | 101 | 103 | 100 | 101
4 | O=S(=O)([O-])CCC[N+]1=Cc2ccccc2C(Cc2ccccc2)(Cc2ccccc2)C1 [Entry 4, 3,4-dihydro-4,4-dibenzyl-2-(3-sulfopropyl)isoquinolinium, Internal salt] | 102 | 104 | 99 | 102
5 | Cc1ccc(CC2(Cc3ccc(C)cc3)C[N+](CCCS(=O)(=O)[O-])=Cc3ccccc32)cc1 [Entry 5, 3,4-dihydro-4,4-di(4-methylphenylmethyl)-2-(3-sulfopropyl)-isoquinolinium, internal salt] | 103 | 99 | 99 | 100
